# “Also recorded” adds a separate entry of the source.
# Assays:
# MGLL = molecular target: T1, MGLL (Mus musculus, UniProt O35678); test: sADPL in vivo target engagement in mPBMCs after oral gavage, off-target MGLL; conditions: mice, 3 and 80 mg/kg
# T1 construct: Then the mPBMCs were acquired from the mouse blood and subjected to family wide probe treatment; from tissue; host or cells: mouse blood PBMCs (mPBMCs)
# T1 sequence (O35678 1-303): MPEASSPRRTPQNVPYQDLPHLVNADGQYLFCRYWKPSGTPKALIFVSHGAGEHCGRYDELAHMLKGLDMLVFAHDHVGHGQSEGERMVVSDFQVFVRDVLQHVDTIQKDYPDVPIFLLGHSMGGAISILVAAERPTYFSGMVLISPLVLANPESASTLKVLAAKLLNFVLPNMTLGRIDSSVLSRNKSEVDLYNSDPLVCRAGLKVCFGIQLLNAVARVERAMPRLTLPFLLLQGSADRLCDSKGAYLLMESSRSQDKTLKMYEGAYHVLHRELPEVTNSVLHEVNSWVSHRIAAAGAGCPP
# Excerpt: FIG. 25. In vivo Target Engagement. The mice were administrated with vehicle (PEG300) or NCEH1 inhibitor JW480 by oral gavage. Then the mPBMCs were acquired from the mouse blood and subjected to family wide probe treatment to profile the in vivo target engagement.
# Following the in vitro study, in vivo target engagement was planned. In this experiment, the inventors orally gavaged the mice with vehicle or inhibitors, then collected the mPBMCs for probe treatment and sADPL measurement. Again, first the activity of NCEH1 was tested in mice PBMCs, and good activity was found. The delta Ct is over 7 cycles, which is over 100 fold change.
# NCEH1 = molecular target: T2, NCEH1 (Homo sapiens, UniProt Q6PIU2); test: α-Biotin Western blot gel-based profiling of NCEH1 activity (FP-Bio labeling) in SKOV3 cells; assay type: cell-based; set-up: endogenous NCEH1 activity in SKOV3 cells; endogenous in cells; host or cells: SKOV3; conditions: 1 μM, 4 hr pre-treatment, equivalent NCEH1 protein levels
# T2 sequence (Q6PIU2 1-408): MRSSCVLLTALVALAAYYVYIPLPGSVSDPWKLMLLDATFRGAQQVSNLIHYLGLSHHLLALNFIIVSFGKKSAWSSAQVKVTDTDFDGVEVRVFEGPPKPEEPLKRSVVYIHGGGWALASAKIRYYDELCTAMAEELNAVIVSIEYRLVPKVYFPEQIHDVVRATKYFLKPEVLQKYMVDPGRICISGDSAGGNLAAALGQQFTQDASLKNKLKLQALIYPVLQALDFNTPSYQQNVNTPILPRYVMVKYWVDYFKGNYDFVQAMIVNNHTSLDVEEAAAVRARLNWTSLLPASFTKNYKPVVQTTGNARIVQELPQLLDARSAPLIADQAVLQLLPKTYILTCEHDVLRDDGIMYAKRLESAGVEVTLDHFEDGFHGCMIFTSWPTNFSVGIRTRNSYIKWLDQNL
# Experimental: Cells were grown in 6-well plates or 6-cm dishes until reaching 80-90% confluence. FP-biotin (FP-Bio, 10 mM stock in DMSO) was diluted to 2 μM in DMEM, and added to cells at 37° C. for 40 minutes. Cells were then washed in PBS, scraped and lysed by sonication using PBS buffer supplemented with protease inhibitor cocktail (Sigma, #92714-1BTL). Protein concentration was determined by BCA assay (Pierce, #23225), lysate was diluted in Laemmli buffer (4×: 200 mM Tris pH 6.8, 400 mM DTT, 8% SDS, 0.4% bromophenol, 40% glycerol), heated to 95° C. for 5 minutes, and resolved on a 4-12% PAGE gel (ThermoFisher, NP0322BOX). PAGE gels were processed for Western blot as indicated above with IR800-conjugated streptavidin (LI-COR, #926-32230) overnight at 4° C. Images were captured by Odyssey CLx imaging system (LI-COR). Quantification of band intensities was performed using ImageJ software (NIH).
smiles,measurement,setting,value
CC(C)c1ccccc1OC(=O)NCCc1ccc2ccccc2c1 [JW480],in vivo target engagement of off-target MGLL in mPBMCs,MGLL,no target engagements were observed
same,NCEH1 activity by gel-based profiling (FP-Bio labeling),NCEH1,significant and selective inhibition of NCEH1 activity; also recorded: specifically inhibits labeling of NCEH1
